Measurements reported in US20050169839A1, “Biomarker for efficacy of appetite suppressant drugs” (priority 2002, published 2005).
Where “and” joins values, the source holds several entries; their conditions need not be identical. Equal entries are not always repeated.

Experiments:
Type in all cases: in vivo, rat
[1] = Body weight change after 4-day dosing in male DIO rats; conditions: for BW change (g), mean: group mean
Experimental: (§1) To determine if plasma AGRP level correlates with a subject's intake of MC4R agonists given as appetite suppressants, we measured plasma AGRP level in DIO rats after treatment with specific MC4 agonists. Male DIO rats were treated either with an MC4 agonist (15 mg/kg, po, b.i.d., for 4 days, n=7) or with vehicle (n=7). The specific MC4 agonist used for treatment was (aR)-N,N-bis(4-[(tert-butylamino)carbonyl]-4-cyclohexyl 1-{4-fluoro-N-[(2-methyl-2-azabicyclo[2.2.1]hept-6-yl)carbonyl]-D-phenylalanyl}piperidin-2-yl)-4-fluoro-N-[(2-methyl-2-azabicyclo[2.2.1]hept-6-yl)carbonyl]-D-phenylalaninamide hydrochloride (hereinafter Compound A).
(§2) After 4 days of treatment with Compound A or with vehicle, plasma samples were obtained from each rat. Plasma AGRP level was thereafter determined using an RIA Kit from Phoenix Pharmaceuticals, Inc. (Belmont, Calif.).
(§3) In a different experiment, groups of male DIO rats were treated either with a second MC4R agonist (20 mg/kg, po, b.i.d., for 4 days, n=6) or with vehicle (n=5). In this study, the specific MC4 agonist used was 4-[2-methylaminocarbonyl-4-flurorphenyl]-1-{[(3S, 4R)-1-tert-butyl-4-(2,4-difluorophenyl)-pyrrolidin-3-yl]carbonyl}piperidine (hereinafter Compound B). […] For each treatment group, plasma samples were collected after 4 days of treatment and AGRP level was measured using an RIA Kit from Phoenix Pharmaceuticals, Inc. (Belmont, Calif.).
(§4) Male DIO rats were treated either with S(+) fenflurarnine (3 mg/kg, po, b.i.d., for 4 days, n=7) or with vehicle (n=5). […] After 4 days of treatment with Compound A or with vehicle, plasma samples were obtained from each rat. Plasma AGRP level was thereafter determined using an RIA Kit from Phoenix Pharmaceuticals, Inc. (Belmont, Calif.).

plasma AGRP = assay: Plasma AGRP level (RIA) after 4-day dosing in male DIO rats; conditions: for AGRP (pg/0.1 mL), mean / AGRP (pg/0.1 mL): plasma; for AGRP (pg/0.1 mL), mean: group mean
Text: A human AGRP RIA assay kit (Phoenix Pharmaceuticals, Inc., Belmont, Calif.), a human leptin RIA kit (Linco Research, Inc., St. Charles, Mo.), and a human specific insulin RIA kit (Linco Research, Inc., St. Charles, Mo.), were used to measure AGRP, leptin, and insulin, respectively in human plasma samples. A Phoenix AGRP RIA kit, which contains synthetic human AGRP (aa83-132) as a standard, was also used to measure AGRP level in rat plasma samples. […] Statistical comparison is based on one-way ANOVA, t or paired t test.
as §1, §2, §3, §4

[2] = Body weight change after 4-day sibutramine dosing in male Sprague-Dawley rats; conditions: sibutramine 3 mg/kg oral once daily for 4 days; mean±standard error; n=7; vehicle gained 23.6±4.16 g
Experimental: Male Sprague-Dawley rats (Charles River Laboratories, Wilmington, Mass.), which were 71 days of age at the beginning of the experiment, were treated with either vehicle alone (0.5% methyl cellulose; n=5 rats) or sibutramine (3 mg/kg of body weight in 0.5% methyl cellulose; n=7 rats). The treatment regime consisted of a single daily oral dose of the test compound every day for 4 days.
The body weight of each rat was measured before commencement of the experiment and at its conclusion. After 4 days of treatment with either test compound, plasma samples of each rat were collected for the measurement of AGRP level. […] The AGRP kit contains a synthetic human AGRP fragment (aa83-132) as the standard. […] For AGRP RIA, 100 μl rat plasma was used per assay. […] Statistical comparison is based on unpaired t test.

[3] = Compound B 20 mg/kg po b.i.d. 4 days, n=6
[4] = Compound B 20 mg/kg po b.i.d. 4 days, individual rats 1-6
[5] = Compound A 15 mg/kg po b.i.d. 4 days, n=7
[6] = Compound A 15 mg/kg po b.i.d. 4 days, individual rats 1-7, hydrochloride, 15 mg/kg
[7] = S(+) fenfluramine 3 mg/kg po b.i.d. 4 days, n=7
[8] = S(+) fenfluramine 3 mg/kg po b.i.d. 4 days, individual rats 1-7

**Q.** Which “effect on body weight (in words)” value ([1]; Compound B 20 mg/kg po b.i.d. 4 days, DIO rats) does the source give for `CNC(=O)c1cc(F)ccc1C1CCN(C(=O)[C@@H]2CN(C(C)(C)C)C[C@H]2c2ccc(F)cc2F)CC1` [Compound B, 4-[2-methylaminocarbonyl-4-flurorphenyl]-1-{[(3S, 4R)-1-tert-butyl-4-(2,4-difluorophenyl)-pyrrolidin-3-yl]carbonyl}piperidine] here?
**A.** The value was “not effective at reducing body weight”.

**Q.** What about the “BW change (g), mean” value [1, 3] of the same compound?
**A.** Its value is 17.5 g.

**Q.** What about the “BW change” value [1, 4] of the same compound?
**A.** Its value is 25 g (2×) and 5 g and 23 g and 15 g and 12 g.

**Q.** And the body weight gained ([1]; Compound B 20 mg/kg po b.i.d. 4 days, mean±standard error, vehicle gained 14.2±1.9 g)?
**A.** Its body weight gained is 17.5 ± 3.3 g.

**Q.** What about the “AGRP (pg/0.1 mL), mean” value (plasma AGRP; [3]) of the same compound?
**A.** The value was 48.4 pg/0.1 mL.

**Q.** And the “AGRP (pg/0.1 mL)” value (plasma AGRP; [4])?
**A.** The value was 45.6 pg/0.1 mL and 26 pg/0.1 mL and 39.8 pg/0.1 mL and 66.9 pg/0.1 mL and 47 pg/0.1 mL and 64.8 pg/0.1 mL.

**Q.** What about the “Plasma AGRP level” value (plasma AGRP; Compound B 20 mg/kg po b.i.d. 4 days, vehicle 45.8±14) of the same compound?
**A.** The value was 48.4±6.3 pg/100 μl plasma.

**Q.** With `CC(C)CC(N(C)C)C1(c2ccc(Cl)cc2)CCC1.Cl.O` (centres unmarked) [sibutramine, N-{1-[1-(4-chlorophenyl)cyclobutyl]-3-methylbutyl}-N,N-dimethylamine hydrochloride monohydrate] as the compound, how does the body weight gained [2] read?
**A.** The body weight gained was 10 ± 4.76 g.

**Q.** With “(aR)-N,N-bis(4-[(tert-butylamino)carbonyl]-4-cyclohexyl 1-{4-fluoro-N-[(2-methyl-2-azabicyclo[2.2.1]hept-6-yl)carbonyl]-D-phenylalanyl}piperidin-2-yl)-4-fluoro-N-[(2-methyl-2-azabicyclo[2.2.1]hept-6-yl)carbonyl]-D-phenylalaninamide hydrochloride [Compound A]” as the compound, how does the “BW change (g), mean” value [1, 5] read?
**A.** Its value is -4.9 g.

**Q.** And the “BW change” value [1, 6]?
**A.** The value was 2 g and 1 g and −2 g and −5 g and −7 g (2×) and −16 g.

**Q.** What about the body weight lost ([1]; Compound A 15 mg/kg po b.i.d. 4 days, mean±standard error, vehicle gained 3.7±1.4 g) of the same compound?
**A.** Its body weight lost is 4.9 ± 2.3 g.

**Q.** And the “Plasma AGRP level” value (plasma AGRP; Compound A 15 mg/kg po b.i.d. 4 days, mean±standard error)?
**A.** Its value is 36.2±2.5 pg/100 μl plasma.

**Q.** And the “AGRP (pg/0.1 mL), mean” value (plasma AGRP; [5])?
**A.** Its value is 36.2 pg/0.1 mL.

**Q.** What about the “AGRP (pg/0.1 mL)” value (plasma AGRP; [6]) of the same compound?
**A.** The value was 35.8 pg/0.1 mL and 42.2 pg/0.1 mL and 38.1 pg/0.1 mL and 46.2 pg/0.1 mL and 33 pg/0.1 mL and 26.5 pg/0.1 mL and 31.6 pg/0.1 mL.

**Q.** For `CCN[C@@H](C)Cc1cccc(C(F)(F)F)c1` [S(+) fenfluramine, reference compound], which “BW change (g), mean” value [1, 7] is on record?
**A.** Its value is -16.3 g.

**Q.** What about the “BW change” value [1, 8] of the same compound?
**A.** Its value is −25 g and −13 g (2×) and −10 g (2×) and −15 g and −28 g.

**Q.** And the body weight lost ([1]; S(+) fenfluramine 3 mg/kg po b.i.d. 4 days, mean±standard error, vehicle gained 14.2±1.9 g)?
**A.** The body weight lost was 16.3 ± 2.7 g.

**Q.** And the “AGRP (pg/0.1 mL), mean” value (plasma AGRP; [7])?
**A.** Its value is 48.3 pg/0.1 mL.

**Q.** What about the “AGRP (pg/0.1 mL)” value (plasma AGRP; [8]) of the same compound?
**A.** Its value is 39.3 pg/0.1 mL and 22.8 pg/0.1 mL and 57.8 pg/0.1 mL and 62.6 pg/0.1 mL and 94.4 pg/0.1 mL and 16.9 pg/0.1 mL and 44.6 pg/0.1 mL.

**Q.** What about the “average plasma AGRP level” value (plasma AGRP; S(+) fenfluramine 3 mg/kg po b.i.d. 4 days, vehicle 45.8±14) of the same compound?
**A.** Its value is 48.3±9.9 pg/100 μl plasma.
